Where two headings read alike, the source gives them in different places.
Key:
G-CSF promoter = experiment: G-CSF promoter/luciferase reporter assay (high-throughput screen I), G21 cells; conditions: for scored as positive in repeat assays (G-CSF): 48 independent luciferase assays, same day; for GCSF fold induction relative to solvent control: transcriptional activators; for GCSF fold induction relative to solvent control / GCSF fold inhibition relative to solvent control: Table 2, 6 h incubation; for GCSF fold inhibition relative to solvent control: transcriptional inhibitors
MMTV promoter = experiment: MMTV promoter/luciferase reporter assay (high-throughput screen I, control for specificity), M10 cells; format: cell-based, mouse; conditions: for MMTV fold induction relative to solvent control: transcriptional activators, original high-throughput assay
Method: pMluci and pSV2Neo, an antibiotic resistance plasmid (84), were co-transfected into NIH/3T3 mouse fibroblast cells using the calcium phosphate precipitation method (85) with a commercially available kit (Pharmacia, Piscataway N.J.). Two days later, cells were transferred to media containing 0.4 mg/ml G418 and were grown for an additional 10-14 days. G418-resistant clones were isolated by standard methods. Once sufficient cell numbers were obtained, clones were analyzed based on several criteria: constitutive luciferase production, induction of luciferase expression by dexamethasone ([…], Sigma, St. Louis, Mo.), satisfactory attachment to microtiter plates used in the high-throughput screen (see section G) and acceptable standard deviation in multiple luciferase expression assays (see below for assay protocol). This analysis was carried out using the luciferase assay conditions described above. Of the clones which satisfied the above criteria for the high throughput screen, one clone, M10, was selected for use.

hGH promoter = experiment: hGH promoter/luciferase reporter assay (high-throughput screen I), 532 cells; format: cell-based, rat; conditions: for hGH fold induction relative to solvent control: transcriptional activators
Source text: 6. a GC rat pituitary cell line, transfected with the growth hormone reporter plasmid, designated 532, deposited under ATCC Accession No. CRL 10663.

[1] = Table 2, 6 h incubation, 360 min
[2] = transcriptional inhibitors, Table 2, 6 h incubation

| SMILES | hGH fold induction relative to solvent control (hGH promoter; Table 2, 6 h incubation) | MMTV fold induction relative to solvent control (MMTV promoter; Table 2, 6 h incubation) | GCSF fold induction relative to solvent control (G-CSF promoter) | hGH fold inhibition relative to solvent control (hGH promoter; [2]) | MMTV fold inhibition relative to solvent control (MMTV promoter; [2]) | GCSF fold inhibition relative to solvent control (G-CSF promoter) | other results |
| --- | --- | --- | --- | --- | --- | --- | --- |
| CC(=O)n1ccnc1 [#58] |  |  |  |  |  |  | scored as positive in repeat assays (G-CSF) (G-CSF promoter): scored as positives in every single one of these assays |
| CN(C)c1ccc2cc3ccc(N(C)C)cc3nc2c1 [#80] |  |  |  |  |  |  | activation of the G-CSF promoter (dose response) (G-CSF promoter; G21 cells): specifically activated the G-CSF promoter; EC50 (G-CSF promoter; read-out: ED50 (concentration of chemical resulting in 50% maximal stimulation), G-CSF reporter cell line G21, range over the three chemicals): 5 to 70 µM |
| c1ccc(-c2cccc(-c3ccccn3)n2)nc1 [#453] |  |  |  |  |  |  | effect of replacing DMSO by methanol on MMTV activation (MMTV promoter; chemical dissolved in methanol): did not affect its ability to activate the MMTV promoter; MMTV fold induction relative to solvent control (MMTV promoter; [1]): 13.3 fold |
| CC(=O)N(C)c1ccc(N)cc1 [#1374] |  |  |  |  |  |  | scored as positive in repeat assays (G-CSF) (G-CSF promoter): scored as positives in every single one of these assays |
| O=NN(O)c1ccccc1 [#1783] |  |  |  |  |  |  | scored as positive in repeat assays (G-CSF) (G-CSF promoter): scored as positive only in half of the 48 repeat assays |
| CC(=O)c1c(C)cc(NC(C)(C)C)nc1NC(C)(C)C [Chemical 40] | 0.62 fold | 0.27 fold | 5.62 fold |  |  |  |  |
| CC(=O)c1ccc[nH]1 [Chemical 70] | 9.26 fold | 0.85 fold | 0.43 fold |  |  |  |  |
| CN(C)c1ccc2cc3ccc(N(C)C)cc3nc2c1 [Chemical 80] | 0.66 fold | 0.83 fold | 5.87 fold |  |  |  |  |
| CN(C)c1ccc(C(=N)c2ccc(N(C)C)cc2)cc1 [Chemical 183] |  |  |  | 4.00 fold | 0.70 fold | 0.72 fold |  |
| O=C(c1ccccc1)c1ccncc1 [Chemical 209] |  |  |  | 1.08 fold | 0.81 fold | 6.66 fold |  |
| CCOC(=O)N1C(=O)c2ccccc2C1=O [Chemical 237] | 0.06 fold | 0.62 fold | 4.77 fold |  |  |  |  |
| Cc1c(C(=O)O)c(O)cc2c1C(=O)c1c(O)c([C@@H]3O[C@H](CO)[C@@H](O)[C@H](O)[C@H]3O)c(O)c(O)c1C2=O [Chemical 240] |  |  |  | 5.26 fold | 0.80 fold | 0.63 fold |  |
| ClCCN1CCCCC1 [Chemical 254] | 0.90 fold | 0.98 fold | 4.09 fold |  |  |  |  |
| NC(=O)N1c2ccccc2CCc2ccccc21 [Chemical 299] | 5.46 fold | 0.47 fold | 0.53 fold |  |  |  |  |
| CCn1c(=O)[nH]c2ccccc21 [Chemical 322] | 11.18 fold | 1.12 fold | 0.60 fold |  |  |  |  |
| O=c1c(O)c(-c2ccc(O)c(O)c2)oc2cc(O)ccc12 [Chemical 325] | 5.42 fold | 1.0 fold | 0.14 fold |  |  |  |  |
| Nc1nc(N)nc(N)n1 [Chemical 364] | 1.18 fold | 1.07 fold | 3.67 fold |  |  |  |  |
| O=c1c(O)c(-c2ccc(O)cc2O)oc2cc(O)cc(O)c12 [Chemical 371] |  |  |  | 0.41 fold | 0.89 fold | 11.11 fold |  |

| SMILES | hGH fold induction relative to solvent control (hGH promoter; Table 2, 6 h incubation) | MMTV fold induction relative to solvent control (MMTV promoter; Table 2, 6 h incubation) | GCSF fold induction relative to solvent control (G-CSF promoter) | hGH fold inhibition relative to solvent control (hGH promoter; [2]) | MMTV fold inhibition relative to solvent control (MMTV promoter; [2]) | GCSF fold inhibition relative to solvent control (G-CSF promoter) | other results |
| --- | --- | --- | --- | --- | --- | --- | --- |
| O=C(O)c1ccc2c3c(ncnc13)-c1ccccc1C2=O [Chemical 378] | 0.26 fold | 0.59 fold | 4.12 fold |  |  |  |  |
| CCN(CC)CCCC(C)Nc1c2ccc(Cl)cc2nc2ccc(OC)cc12 (stereo not drawn) [Chemical 423] | 0.56 fold | 0.64 fold | 2.39 fold |  |  |  |  |
| O=c1ccc2[n+]([O-])c3ccc(O)cc3oc-2c1 [Chemical 427] | 0.43 fold | 0.71 fold | 3.14 fold |  |  |  |  |
| Cc1cc(C)nc(NS(=O)(=O)c2ccc(N)cc2)n1 [Chemical 443] |  |  |  | 4.76 fold | 0.79 fold | 0.60 fold |  |
| c1ccc(-c2cccc(-c3ccccn3)n2)nc1 [Chemical 453] | 0.58 fold |  | 0.79 fold |  |  |  | MMTV fold induction relative to solvent control (MMTV promoter; [1]): 13.30 fold |
| c1ncncn1 [Chemical 473] | 0.50 fold | 0.87 fold | > 3 fold |  |  |  |  |
| O=S(=O)(O)c1ccc2c(N=Nc3ccc(S(=O)(=O)O)c4ccccc34)c(O)c(S(=O)(=O)O)cc2c1 [Chemical 512] |  |  |  | 5.26 fold | 0.68 fold | 0.81 fold |  |
| CC(C=O)=CC=CC(C)=CC=CC=C(C)C=CC=C(C)C=CC1=C(C)CCCC1(C)C [Chemical 519] | 0.68 fold | 2.76 fold | 1.15 fold |  |  |  |  |
| O=P(O)(O)Oc1c[nH]c2ccc(Br)c(Cl)c12 [Chemical 541] |  |  |  | 6.25 fold | 0.86 fold | 0.90 fold |  |
| CON(C)C(=O)Nc1ccc(Cl)cc1 [Chemical 552] | 5.31 fold | 0.86 fold | 0.81 fold |  |  |  |  |
| CC1=CC(=C(c2cc(C)c(O)c(C(=O)O)c2)c2c(Cl)ccc(S(=O)(=O)O)c2Cl)C=C(C(=O)O)C1=O [Chemical 556] |  |  |  | 33.33 fold | 0.87 fold | 0.73 fold |  |
| CC(=O)NCCCC[C@H](NC(C)=O)C(=O)O [Chemical 577] |  |  |  | 4.00 fold | 0.68 fold | 0.64 fold |  |
| O=C(O[C@H](C(=O)O)[C@H](OC(=O)c1ccccc1)C(=O)O)c1ccccc1 [Chemical 578] |  |  |  | 4.00 fold | 0.91 fold | 0.65 fold |  |
| COc1ccc(CC(=O)O)cc1OC [Chemical 629] | 1.05 fold | 2.48 fold | 0.85 fold |  |  |  |  |
| O=C(O)CC1NC(=O)NC1=O (stereo not drawn) [Chemical 630] |  |  |  | 3.57 fold | 0.74 fold | 0.70 fold |  |
| O=C(O)c1[nH]c(=O)[nH]c(=O)c1I [Chemical 633] | 0.86 fold | 2.46 fold | 1.02 fold |  |  |  |  |
| Nc1c(O)c(S(=O)(=O)O)c(O)c2c1C(=O)c1ccccc1C2=O [Chemical 640] |  |  |  | 5.00 fold | 0.59 fold | 0.64 fold |  |
| C[C@]12C=CC(=O)C=C1CC[C@@H]1[C@@H]2[C@@H](O)C[C@@]2(C)[C@H]1CC[C@]2(O)C(=O)CO [Chemical 764] |  |  |  |  |  |  | hGH fold inhibition relative to solvent control (hGH promoter): 4.54; MMTV fold inhibition relative to solvent control (MMTV promoter): 0.59 |
